Data: US6870044B2, “Inflammation inducible hybrid promoters, vectors comprising them and uses thereof” (Universite Pierre et Marie Curie, priority 2000, dated 2005)
Where “and” joins values, the source holds several entries; their conditions need not be identical. Equal values may be shown once.

Key:
[1] = form not soluble in water, dose 5 to 50 mg/kg, for example 30 mg/kg; cited from earlier work
[2] = test system: construct (DR)2 21-(−247/+20) sPLA2-CAT; experiment: CAT reporter, hybrid promoter (DR1)2 21-(−247/+20) sPLA2-CAT in transfected chondrocytes; type: cell-based, rabbit; conditions: for induction of the hybrid promoter, single inducer: PGJ2 10 μM, IL-1 10 ng/ml; for activation of the construct (DR1)2 21-(−247/+20)-CAT: 10^−4 M
Experimental: (§1) The hind and forelegs of 3-week-old prepubescent rabbits (Fauve de Bourgogne) were dissected and chopped up under sterile conditions. The cartilage is removed with a scalpel and then the chondrocytes are dissociated by means of proteolytic enzymes: hyaluronidase 0.05% for 15 minutes, trypsine 0.25% for 30 minutes and collagenase 0.2% for 90 minutes. Finally, the HAM's F12 medium is added for 60 minutes. The suspension of chondrocytes is cultured in dishes 6 cm in diameter (150,000 cells per dish) in the presence of HAM's F12 medium containing 10% fetal calf serum.
(§2) When these cells reach preconfluence (6 to 7 days), they are transfected with the various constructs using the calcium phosphate method.
(§3) The CAT activity is measured according to the double liquid phase technique according to Desbois et al. (1992). The β-galactosidase activity is measured with the aim of normalizing the variations in the transfection efficiency.
(§4) The fragment −247/+20 of the promoter of sPLA2 IIA (SEQ ID NO:5) was subcloned upstream of the CAT reporter vector for the plasmid PUC-SH-CAT. Upstream of this promoter, the different PPRE sequences cited above (SEQ ID NO: 1-4) were inserted.
(§5) The rabbit chondrocytes were then transfected with the CAT constructs containing the different arrangements of PPRE (DR1) placed upstream of the minimal promoter of sPLA2-IIA. 15 deoxy Δ^12-14 PGJ2 (10 μM) (activator of PPARγ) or Wy-14643 (200 μM) (activator of PPARα) were then added to the culture medium for 24 hours.
(§6) Rabbit chondrocytes were then transfected, either with the minimal promoter of sPLA2-IIA, or with the sequence (DR1)2 21 placed upstream of the latter (hybrid promoter). PGJ2 (10 μM) and/or IL-1 (10 ng/ml) are added to the culture medium.

[3] = test system: minimal promoter (−247/+20) of sPLA2-IIA; experiment: CAT reporter, minimal promoter (−247/+20) of sPLA2-IIA in transfected chondrocytes; type: cell-based, rabbit; conditions: for activation of the minimal promoter (−247/+20) of sPLA2-IIA: PGJ2 10 μM or Wy-14643 200 μM, 24 hours
Experimental: as §1, §2, §3, §4, §5, §6

[4] = test system: PPARα/RXR heterodimer (Cos-1 extracts enriched with PPARα and RXR); experiment: Gel retardation, cooperative binding of PPARα/RXR to radiolabeled PPRE sequences; conditions: PPARα/RXR 3/1, bands counted on a beta scintillation counter
Experimental: (§7) The Cos-1 cells (transformed monkey kidney fibroblasts) are transfected according to the abovementioned calcium phosphate technique using 20 μg of vectors for expression of PPARγ, PPARα or RXR. Non-transfected Cos-1 cells will serve as control. 48 hours after the transfection, the cells are incubated with a buffer containing KCl (0.45 M), Tris-HCl (20 mM, pH=7.5) and 10% glycerol. They are detached by scraping and then disrupted by cooling to −80° C. and thawing at 37° C. These cells are then centrifuged at 15,000 rpm, for 10 minutes at 4° C. The supernatant is then frozen at −80° C. and used for the gel retardation experiments.
(§8) The sequences DR1, (DR1)2 17, (DR1)2 21, and (DR1)2 31 are radiolabeled by means of the Klenow fragment of DNA polymerase using [α-^32P]dCTP. One hundred thousand cpm (0.4 ng) of the radiolabeled probes are incubated, for 30 minutes at 4° C., with increasing quantities of Cos-1 extracts enriched with PPAR and RXR (as indicated in the legend to the figures) and with a specific binding buffer (KCl 100 mM, Hepes 40 mM, pH 7.5, NP40 0.1%, ZnCl2 0.5 mM, PEG 8%). The mixture is then deposited on an acrylamide/bisacrylamide gel (5%, TBE 0.25×) and run for 2 hours 30 min at 200 volts. The gel is then dried and autoradiographed.
With the aim of studying the cooperativity of the binding of PPAR/RXR to these different sequences, gel retardation experiments placing increasing quantities of Cos-1 extracts enriched with PPAR and RXR (1 μl to 10 μl), followed by quantification of the radioactivity obtained, were carried out. […]
Similar experiments were carried out with PPARα. […] Gel retardation experiments using the four radiolabeled sequences and increasing quantities of Cos-1 extracts enriched with PPARα and RXR (rapport3/1) were carried out. The bands corresponding to the dimeric (D) or tetrameric (T) forms or the free probe (P) were cut out of the gel and then quantified by counting on a beta scintillation counter (FIG. 4). […]

[5] = test system: PPARγ and RXR proteins prepared in Cos-1 cells; experiment: Gel retardation, cooperative binding of PPARγ/RXR to radiolabeled PPRE sequences; conditions: for cooperativity ratio KdII/KdIV (R): PPARγ/RXR ratio 3:1, Cos-1 extracts 1 μl to 10 μl, Phosphorimager quantification
Experimental: as §7, §8
In order to verify the functional nature and the efficiency of the above PPRE regions, gel retardation experiments were carried out consisting in studying the binding between one of the four sequences above, radiolabeled beforehand, in the presence of increasing quantities (5 and 10 μl) of PPARγ and RXR proteins prepared in Cos-1 cells (PPARγ/RXR ratio=3:1).
With the aim of studying the cooperativity of the binding of PPAR/RXR to these different sequences, gel retardation experiments placing increasing quantities of Cos-1 extracts enriched with PPAR and RXR (1 μl to 10 μl), followed by quantification of the radioactivity obtained, were carried out. The formation of the first PPAR/RXR dimer is characterized by the dissociation constant KdII, that of the double dimer, or tetramer, is characterized by the dissociation constant KdIV. The KdII/KdIV ratio (R) is the reflection of the cooperativity of the binding if it is greater than 1.
The various dimeric and tetrameric complexes and the free probe were quantified by means of a Phosphorimager and represented in FIG. 3. The cooperativity ratios were calculated by means of the abovementioned formula. The sequences (DR1)2 17 and (DR1)2 31 bind as many dimeric and tetrameric forms. The cooperativity ratios are 9 and 12.6 respectively. […] The dimeric form forms only 20% of the total binding, whereas the tetrameric form forms 80% of the total binding. The cooperativity ratio is 34 +/−11.

[6] = test system: RSV (Rous Sarcoma Virus) promoter (comparator); experiment: Transcriptional activity of the synthetic promoter compared with the RSV viral promoter; type: cell-based
Excerpt: Finally, the levels of transcriptional activities reached by a viral promoter, such as the RSV (Rous Sarcoma Virus) promoter, and that of the synthetic promoter were compared. The basal transcriptional activity of the synthetic promoter is low, it is less than 5% of the activity of the RSV viral promoter.

CN(CCOc1ccc(CC2SC(=O)NC2=O)cc1)c1ccccn1 (centres unmarked) [BRL 49653, rosiglitazone]
plasma concentration [1]: about 15 μg/ml

C[C@@H]1C[C@H]2[C@@H]3CCC4=CC(=O)C=C[C@]4(C)[C@@]3(F)[C@@H](O)C[C@]2(C)[C@@]1(O)C(=O)CO [Dexamethasone, dexamethasone]
activation of transcription of the synthetic promoter ([2]; dexamethasone alone, concentration not given): about 6 fold

CCCCC/C=C/C=C1/C(=O)C=C[C@@H]1C/C=C\CCCC(=O)O [PGJ2, 15 deoxy Δ^12-14 PGJ2]
induction of the hybrid promoter, single inducer [2]: 4 fold | activation of the minimal promoter (−247/+20) of sPLA2-IIA [3]: not activated | activation of the minimal promoter (−247/+20) of sPLA2-IIA ([3]; listed as prostaglandin J2): no effect

Cc1cccc(Nc2cc(Cl)nc(SCC(=O)O)n2)c1C [Wy-14643, pirinixic acid]
activation of transcription of the hybrid construct ([2]; Wy-14643 200 μM): 3 to 4 fold | activation of the minimal promoter (−247/+20) of sPLA2-IIA [3]: no effect | activation of the minimal promoter (−247/+20) of sPLA2-IIA ([3]; listed as Wy 14643): not activated

CC(C)Cc1ccc(C(C)C(=O)O)cc1 (centres unmarked) [ibuprofen]
activation of the construct (DR1)2 21-(−247/+20)-CAT [2]: 17 fold

COc1ccc2c(c1)c(CC(=O)O)c(C)n2C(=O)c1ccc(Cl)cc1 [indomethacin]
activation of the construct (DR1)2 21-(−247/+20)-CAT [2]: about fivefold

(DR1)2 17: two DR1s separated center to center by 17 base pairs (DNA CAAAACTAGGTCAAAGGTCAAAACTAGGTCAAAGGTCA; radiolabeled by Klenow fill-in with 32P-dCTP, further chemistry not given here)
cooperativity ratio (R) [4]: 7 | cooperativity ratio KdII/KdIV (R) [5]: 9

(DR1)2 21: two DR1s separated center to center by 21 base pairs (DNA CAAAACTAGGTCAAAGGTCATCAAAACTAGGTCAAAGGTCA; radiolabeled by Klenow fill-in with 32P-dCTP, further chemistry not given here)
cooperativity ratio (R) [4]: 11.2 and 11 | dimeric form, share of total binding ([5]; PPARγ/RXR): 20% | tetrameric form, share of total binding ([5]; PPARγ/RXR): 80% | cooperativity ratio KdII/KdIV (R) [5]: 34 +/−11

(DR1)2 31: two DR1s separated center to center by 31 base pairs (DNA CAAAACTAGGTCAAAGGTCATGTCTTTAGGCCCAAAACTAGGTCAAAGGTCA; radiolabeled by Klenow fill-in with 32P-dCTP, further chemistry not given here)
cooperativity ratio (R) [4]: 11.6 and 11 | cooperativity ratio KdII/KdIV (R) [5]: 12.6

IL-1: pro-inflammatory cytokine interleukin-1
induction of the hybrid promoter, single inducer [2]: 4 fold | stimulation of the activity of the CAT reporter gene ([3]; 247 bp fragment upstream of first exon of human PLA2s IIA gene, rabbit chondrocytes in primary culture): 6 to 8 times | induction of the promoter of sPLA2-IIA ([3]; IL-1 10 ng/ml in culture medium): 6 fold

B1: synthetic promoter: PPAR response element (DR1)2 21 linked to fragment −247/+20 of the PLA2s IIA gene (nucleic acid)
DNA: GTACCAATTCGACAAAACTAGGTCAAAGGTCATCAAAACTAGGTCAAAGGTCAAATTCGAACGCGGCAAAACTGCCTGAAATGTGTTTTGGCATCAGCTACTGACACGTAAGGTTTCCCAATCCTCAACTCTGTCCTGCCAGCTGATGAGGGGAAGGAAAGGGATTACCTAGGGGTATGGGCGACCAATCCTGAGTCCACCAACTGACCACGCCCATCCCCAGCCTTGTGCCTCACCTACCCCCAACCTCCCAGAGGGAGCAGCTATTTAAGGGGAGCAGGAGTGCAGAACAAACAAGACGGCCTGGGGATACAACTCTGGAGTCCTCTGAG
modifications: PPRE/PLA2s hybrid promoter
notes: PPAR response element (DR1)2 21 linked to fragment −247/+20 of the PLA2s IIA gene
transcriptional activity relative to RSV after induction ([6]; after induction with the different effectors (results not shown)): 40% | basal transcriptional activity, relative to the RSV viral promoter ([6]; not induced): less than 5%
